Data taken from ChEMBL document CHEMBL1201862, “PubChem BioAssay data set” (2004).
The source made the active and inactive calls.

What was measured:
[1] = target: Heat shock protein HSP 90-alpha (Homo sapiens, UniProt P07900); assay type: functional, organism-based
[2] = target: T1, High affinity choline transporter 1 (Homo sapiens, UniProt Q9GZV3); test: human choline transporter blockers, potency – cell-based, 5-point CRC, membrane potential dye, dose response (AID 504840); assay type: functional
T1 sequence (Q9GZV3 whole entry): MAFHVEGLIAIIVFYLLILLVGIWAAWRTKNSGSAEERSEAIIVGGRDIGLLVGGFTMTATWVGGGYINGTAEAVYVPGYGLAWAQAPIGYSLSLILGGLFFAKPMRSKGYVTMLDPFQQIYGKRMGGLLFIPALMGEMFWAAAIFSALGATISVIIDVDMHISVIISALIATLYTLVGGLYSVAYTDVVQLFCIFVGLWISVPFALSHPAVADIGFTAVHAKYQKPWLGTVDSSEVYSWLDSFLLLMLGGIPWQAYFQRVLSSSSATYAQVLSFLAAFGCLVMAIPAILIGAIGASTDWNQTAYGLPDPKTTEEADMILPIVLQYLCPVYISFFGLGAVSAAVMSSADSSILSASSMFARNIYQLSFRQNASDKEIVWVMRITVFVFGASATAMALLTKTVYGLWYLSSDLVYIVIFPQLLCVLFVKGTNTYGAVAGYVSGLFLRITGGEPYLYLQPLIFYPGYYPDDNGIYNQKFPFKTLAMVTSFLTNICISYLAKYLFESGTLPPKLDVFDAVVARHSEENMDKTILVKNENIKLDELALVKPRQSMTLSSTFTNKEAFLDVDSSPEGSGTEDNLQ

[3] = target: T2, Microphthalmia-associated transcription factor (Homo sapiens, UniProt O75030); test: reducers of TRPM1 reporter luminescence, concentration series – cell-based, SK-MEL-5, cherry-picked, set 3, MITF inhibitor project, dose response (AID 493073); assay type: functional;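 also: SK-MEL-5 melanoma cells with luciferase driven by the MITF target TRPM1 promoter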
T2 sequence (O75030 whole entry): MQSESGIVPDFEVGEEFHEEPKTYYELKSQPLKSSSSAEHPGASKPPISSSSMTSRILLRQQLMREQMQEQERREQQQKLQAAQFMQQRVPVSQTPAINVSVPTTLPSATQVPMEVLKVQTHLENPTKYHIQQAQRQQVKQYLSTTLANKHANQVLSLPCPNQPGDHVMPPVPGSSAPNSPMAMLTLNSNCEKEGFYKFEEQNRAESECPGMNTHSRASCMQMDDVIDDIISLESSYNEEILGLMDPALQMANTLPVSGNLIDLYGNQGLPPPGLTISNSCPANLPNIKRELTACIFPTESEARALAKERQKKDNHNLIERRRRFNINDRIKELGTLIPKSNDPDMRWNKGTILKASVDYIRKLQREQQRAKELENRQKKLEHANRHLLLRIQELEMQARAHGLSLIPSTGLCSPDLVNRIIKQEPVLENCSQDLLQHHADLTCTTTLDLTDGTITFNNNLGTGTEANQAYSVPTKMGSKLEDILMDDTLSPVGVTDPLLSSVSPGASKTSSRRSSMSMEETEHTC

[4] = target: T3, Ubiquitin-conjugating enzyme E2 N (Homo sapiens, UniProt P61088); assay type: functional;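 also: Dose-response confirmation in a TR-FRET assay detecting UBC13-driven polyubiquitin chain formation, inhibition measured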
T3 sequence (P61088 whole entry): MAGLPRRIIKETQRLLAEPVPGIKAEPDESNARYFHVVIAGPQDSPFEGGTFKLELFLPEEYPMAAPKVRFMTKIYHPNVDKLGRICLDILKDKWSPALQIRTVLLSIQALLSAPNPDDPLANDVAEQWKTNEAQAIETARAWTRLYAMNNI

Fatty acid synthase [5] = target: T4, Fatty acid synthase (Homo sapiens, UniProt P49327); test: inhibition of human FAS-TE enzyme activity – biochemical, endpoint fluorescence intensity, uHTS hits, dose response (AID 624327); assay type: functional;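 also: fluorescence from hydrolysis of an O-methyl fluorescein acyl ester substrate by the enzyme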
Fatty acid synthase [6] = target: T4, Fatty acid synthase; test: inhibition of human FAS-TE enzyme activity – biochemical, kinetic fluorescence intensity, dose response (AID 624326); assay type: functional;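 also: rate of fluorescence rise from hydrolysis of a fluorogenic O-methyl fluorescein ester substrate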
[7] = system: Streptococcus sp. 'group A'; test: Streptococcus pyogenes SK(-)GAS viability under kanamycin – luminescence, BacTiterGlo, confirmation, counter-screen for streptokinase expression inhibitor project, dose response (AID 1900); assay type: functional, organism-based
[8] = target: T5, Heat shock factor protein 1 (Mus musculus, UniProt P38532); test: decrease of HSF1-responsive luciferase luminescence – cell-based, NIH3T3, dose retest, confirmation (AID 2382); assay type: functional;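 also: NIH3T3 fibroblasts with HSF1-driven luciferase reporter stressed by proteasome inhibitor MG132; luminescence from HSF1-driven luciferase expression after 8 hours of MG132 stress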
T5 sequence (P38532 whole entry): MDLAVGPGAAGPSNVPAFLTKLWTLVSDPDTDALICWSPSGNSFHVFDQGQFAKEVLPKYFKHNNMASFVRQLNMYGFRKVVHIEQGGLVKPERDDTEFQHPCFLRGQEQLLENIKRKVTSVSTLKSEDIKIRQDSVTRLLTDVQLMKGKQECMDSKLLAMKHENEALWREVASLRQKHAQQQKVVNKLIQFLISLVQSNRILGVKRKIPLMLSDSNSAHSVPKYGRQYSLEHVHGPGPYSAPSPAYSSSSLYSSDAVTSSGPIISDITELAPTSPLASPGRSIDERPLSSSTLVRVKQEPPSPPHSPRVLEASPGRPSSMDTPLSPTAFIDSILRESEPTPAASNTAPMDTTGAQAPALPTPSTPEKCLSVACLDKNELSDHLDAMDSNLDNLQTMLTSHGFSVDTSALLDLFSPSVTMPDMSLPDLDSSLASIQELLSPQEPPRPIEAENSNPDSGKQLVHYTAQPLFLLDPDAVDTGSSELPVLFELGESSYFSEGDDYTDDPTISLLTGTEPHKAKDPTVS

Streptokinase A = target: T6, Streptokinase A (Streptococcus pyogenes serotype M1, UniProt P10520); test: viability-normalized secreted streptokinase activity reduction – plasminogen activation absorbance, OD405, dose response (AID 1914); assay type: functional, Streptococcus pyogenes M1 GAS;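 also: secreted streptokinase activity via plasminogen activation per viability signal from cell pellet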
T6 sequence (P10520 whole entry): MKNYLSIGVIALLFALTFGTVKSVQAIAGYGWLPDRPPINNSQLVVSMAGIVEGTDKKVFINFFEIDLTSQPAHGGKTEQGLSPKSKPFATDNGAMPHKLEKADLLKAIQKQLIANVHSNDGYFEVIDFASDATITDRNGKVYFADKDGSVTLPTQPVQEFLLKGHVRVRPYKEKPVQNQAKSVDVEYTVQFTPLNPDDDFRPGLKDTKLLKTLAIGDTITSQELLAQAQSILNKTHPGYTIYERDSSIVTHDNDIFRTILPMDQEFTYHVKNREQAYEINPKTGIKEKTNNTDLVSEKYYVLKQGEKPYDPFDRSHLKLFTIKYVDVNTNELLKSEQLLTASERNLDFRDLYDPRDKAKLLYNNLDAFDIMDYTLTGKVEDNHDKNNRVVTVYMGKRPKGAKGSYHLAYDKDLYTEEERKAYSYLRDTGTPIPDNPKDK

Streptococcus = test: GAS UMAA2166 growth inhibition – luminescence, BacTiterGlo, counter-screen for streptokinase expression inhibitor project, dose response (AID 1915); assay type: functional, organism-based;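 also: potency for reduction of bacterial viability or growth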
[9] = Luminescence Cell-Based Dose Retest to Confirm Inhibitors of Cancer Stem Cells. [Related pubchem assays (depositor defined):AID2717, AID2721]; assay type: functional; conditions: Homo sapiens
INS1 = test: INS-1E survival protection against cytokine death – cell-based, luminescence, retest, dose response (AID 449756); assay type: functional; conditions: Rattus norvegicus;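 also: cell death triggered by IL-1 beta plus TNF-alpha plus IFN-gamma mixture; protective hits raise ATP signal compared with cytokine alone wells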
cells [10] = assay type: functional, cell-based
cells [11] = assay type: functional, cell-based; remark: listed apart in the source

T4 sequence (P49327 whole entry): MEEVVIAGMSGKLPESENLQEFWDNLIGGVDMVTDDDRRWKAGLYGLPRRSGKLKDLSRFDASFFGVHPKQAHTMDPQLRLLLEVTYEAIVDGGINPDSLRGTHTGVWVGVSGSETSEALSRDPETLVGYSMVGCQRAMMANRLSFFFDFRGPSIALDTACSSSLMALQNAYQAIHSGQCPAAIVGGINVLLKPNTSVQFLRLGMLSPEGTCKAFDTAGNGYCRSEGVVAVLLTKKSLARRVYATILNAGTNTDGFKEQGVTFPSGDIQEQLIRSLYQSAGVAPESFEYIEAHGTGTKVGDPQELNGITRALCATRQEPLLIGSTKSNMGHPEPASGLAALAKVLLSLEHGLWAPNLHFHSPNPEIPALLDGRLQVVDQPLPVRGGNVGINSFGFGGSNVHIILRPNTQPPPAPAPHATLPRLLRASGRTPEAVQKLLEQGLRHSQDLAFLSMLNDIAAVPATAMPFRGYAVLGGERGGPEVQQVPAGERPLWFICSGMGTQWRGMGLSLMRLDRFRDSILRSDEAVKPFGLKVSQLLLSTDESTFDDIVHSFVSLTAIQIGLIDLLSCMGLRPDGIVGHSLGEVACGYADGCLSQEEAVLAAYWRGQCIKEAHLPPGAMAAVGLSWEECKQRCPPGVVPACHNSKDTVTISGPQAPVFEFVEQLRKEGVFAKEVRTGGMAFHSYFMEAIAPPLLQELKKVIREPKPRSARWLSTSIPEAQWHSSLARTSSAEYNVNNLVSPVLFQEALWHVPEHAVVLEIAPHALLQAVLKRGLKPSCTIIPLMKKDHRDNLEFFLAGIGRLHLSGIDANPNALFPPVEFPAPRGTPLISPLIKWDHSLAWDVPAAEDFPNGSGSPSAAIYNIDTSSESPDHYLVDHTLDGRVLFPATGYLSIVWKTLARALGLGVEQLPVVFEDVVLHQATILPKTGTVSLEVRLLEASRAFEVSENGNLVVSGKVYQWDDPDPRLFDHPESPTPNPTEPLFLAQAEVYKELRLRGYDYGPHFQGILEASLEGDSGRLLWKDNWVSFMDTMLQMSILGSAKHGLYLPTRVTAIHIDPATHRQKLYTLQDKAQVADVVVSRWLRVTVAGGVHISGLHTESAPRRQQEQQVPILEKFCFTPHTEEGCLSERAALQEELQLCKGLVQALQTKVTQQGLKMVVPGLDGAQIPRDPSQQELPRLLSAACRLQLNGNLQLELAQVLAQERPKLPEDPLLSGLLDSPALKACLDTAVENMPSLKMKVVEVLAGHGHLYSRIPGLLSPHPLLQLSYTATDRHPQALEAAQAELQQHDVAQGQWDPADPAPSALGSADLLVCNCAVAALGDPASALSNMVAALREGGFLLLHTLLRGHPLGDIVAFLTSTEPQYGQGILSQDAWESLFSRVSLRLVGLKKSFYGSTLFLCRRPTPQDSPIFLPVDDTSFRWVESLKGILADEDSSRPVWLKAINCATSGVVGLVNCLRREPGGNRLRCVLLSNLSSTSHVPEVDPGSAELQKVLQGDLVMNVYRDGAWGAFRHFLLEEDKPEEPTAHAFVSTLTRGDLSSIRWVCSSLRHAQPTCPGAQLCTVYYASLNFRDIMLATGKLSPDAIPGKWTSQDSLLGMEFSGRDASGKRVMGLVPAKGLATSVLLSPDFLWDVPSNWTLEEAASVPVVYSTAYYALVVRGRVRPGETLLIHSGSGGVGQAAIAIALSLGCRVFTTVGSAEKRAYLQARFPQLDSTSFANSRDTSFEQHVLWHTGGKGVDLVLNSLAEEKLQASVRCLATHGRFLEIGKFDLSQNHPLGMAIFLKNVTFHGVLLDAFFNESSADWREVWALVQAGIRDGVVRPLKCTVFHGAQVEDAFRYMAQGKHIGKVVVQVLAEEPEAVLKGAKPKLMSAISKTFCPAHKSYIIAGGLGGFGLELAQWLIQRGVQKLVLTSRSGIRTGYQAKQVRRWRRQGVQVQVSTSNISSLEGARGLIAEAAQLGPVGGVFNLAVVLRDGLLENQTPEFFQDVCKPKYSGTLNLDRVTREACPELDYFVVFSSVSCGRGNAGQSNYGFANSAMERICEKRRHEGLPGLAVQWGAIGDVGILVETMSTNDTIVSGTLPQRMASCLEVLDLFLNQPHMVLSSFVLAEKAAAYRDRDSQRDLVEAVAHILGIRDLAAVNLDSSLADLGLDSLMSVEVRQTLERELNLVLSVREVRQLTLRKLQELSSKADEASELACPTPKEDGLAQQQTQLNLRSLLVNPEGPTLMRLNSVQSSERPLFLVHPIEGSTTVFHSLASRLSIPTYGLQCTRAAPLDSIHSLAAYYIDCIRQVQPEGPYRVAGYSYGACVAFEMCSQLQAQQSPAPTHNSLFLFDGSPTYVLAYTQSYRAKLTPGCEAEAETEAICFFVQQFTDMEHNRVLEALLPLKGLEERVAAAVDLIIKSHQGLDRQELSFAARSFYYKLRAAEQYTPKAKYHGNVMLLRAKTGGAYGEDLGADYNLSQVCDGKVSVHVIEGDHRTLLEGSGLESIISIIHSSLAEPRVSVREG

Compound: CCN(CC)S(=O)(=O)c1cccc(C(=O)NCC(c2ccccc2)N(C)C)c1 (centres undefined)
- AC50 [1]: 3.2 µM (active)

Compound: COc1ccccc1/C=C1\SC(=O)N(CC(=O)NCCCn2ccnc2)C1=O
- IC50 [2]: 19.1 µM (active)

Compound: CCN1c2ccccc2NC2C1C(C(C)=O)C(=O)N2c1ccc(Cl)cc1 (centres undefined)
- AC50 [3]: 12.7 µM (active)

Compound: Cc1ccc(C(=O)N2CCN(c3ccccc3)CC2)cc1S(=O)(=O)N1CCCC1
- IC50 [2]: 11 µM (active)

Compound: COc1ccc(OCCCC(=O)Nc2ccc(S(=O)(=O)N3CCOCC3)cc2)cc1
- IC50 [4]: > 20 µM (inactive)

Compound: CC(=O)NC(C)c1cc(Cl)c2ccccc2c1O (centres undefined)
- IC50 [4]: > 20 µM (inactive)

Compound: Cc1ccc(C(C)C)c(OCCOCCN2CCNCC2)c1
- IC50 [2]: 13.8 µM (active)

Compound: O=C(CCC1CCCC1)NCCCNC(=O)CCC1CCCC1
- IC50 [2]: 15.8 µM (active)

Compound: C=CC(n1cncn1)C(O)(c1ccccc1)c1ccccc1 (centres undefined)
- AC50 [1]: 0.826 µM (active)

Compound: Cc1ccc(C(=O)NCC(=O)OCc2nnc(-c3ccc([N+](=O)[O-])cc3)o2)cc1
- IC50 (Fatty acid synthase [5]): 4.73 µM (active)
- IC50 (Fatty acid synthase [6]): 5.56 µM (active)

Compound: O=C(N/N=C/c1ccccn1)c1cc(-c2ccccc2Cl)n[nH]1
- IC50 [4]: > 20 µM (inactive)

Compound: Cc1cccc(C)c1/N=C1\C(Cl)=C(O)OC1OC(=O)c1ccccc1 (centres undefined)
- IC50 (Fatty acid synthase [5]): 4.46 µM (active)
- IC50 (Fatty acid synthase [6]): 4.54 µM (active)

Compound: Cc1ccc(N/N=C(\C=O)C(=O)c2ccc(Cl)cc2)cc1
- AC50 [1]: 5.6 µM (active)
- EC50 [7]: 8.86 µM (active)
- EC50 [8]: 4.78 µM (active)
- EC50 (Streptokinase A): > 50 µM (not active)
- EC50 (Streptococcus): 14.8 µM (active)

Compound: COc1ccc2nc(C)cc(SCC(=O)N/N=C/c3ccc(O)cc3O)c2c1
- AC50 [9]: 2.74 µM (active)
- AC50 (INS1): 2.65 µM (active)
- EC50 (cells [10]): 12.9 µM (active)
- AC50 [3]: 10.1 µM (active)
- EC50 (cells [11]): > 350 µM (not active)
